Experiments:
Assay in all cases: relative viability (nuclei count vs DMSO), 5 days (fraction); higher = more cells survive
COR-L 105 = test system: COR-L 105
How it was run: (§1)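 Lung cancer cell lines were seeded in 1536-well plates and dosed by pin tool the next day, with either a single drug or a fixed anchor-drug dose combined with five library-drug doses (not always all listed) spaced in √10 steps. Five days later, one step fixed the cells and stained their nuclei (final 0.05% Triton X-100, 1% formaldehyde, 1 ug/ml Hoechst), and nuclei were counted on 4× images. Relative viability is the nuclei count in treated wells divided by the count in vehicle wells, and each value is the median of duplicate plates.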

SK-LU-1 = test system: SK-LU-1
How it was run: as §1

HCC-366 = test system: HCC-366
How it was run: as §1

NCI-H1944 = test system: NCI-H1944
How it was run: as §1

NCI-H1975 = test system: NCI-H1975
How it was run: as §1

HCC-78 = test system: HCC-78
How it was run: as §1

HCC-15 = test system: HCC-15
How it was run: as §1

NCI-H358 = test system: NCI-H358
How it was run: as §1

HARA = test system: HARA
How it was run: as §1

HCC-44 = test system: HCC-44
How it was run: as §1

COR-L23 = test system: COR-L23
How it was run: as §1

LCLC-103H = test system: LCLC-103H
How it was run: as §1

NCI-H2405 = test system: NCI-H2405
How it was run: as §1

NCI-H2085 = test system: NCI-H2085
How it was run: as §1

UMC-11 = test system: UMC-11
How it was run: as §1

NCI-H661 = test system: NCI-H661
How it was run: as §1

HCC-827 = test system: HCC-827
How it was run: as §1

NCI-H727 = test system: NCI-H727
How it was run: as §1

NCI-H1437 = test system: NCI-H1437
How it was run: as §1

NCI-H1395 = test system: NCI-H1395
How it was run: as §1

NCI-H2023 = test system: NCI-H2023
How it was run: as §1

EPLC-272H = test system: EPLC-272H
How it was run: as §1

`O=c1[nH]c2ccccc2n1C1CCN(CCCC(c2ccc(F)cc2)c2ccc(F)cc2)CC1` [Pimozide] + O=C(CCCCCCC(=O)Nc1ccccc1)NO [Vorinostat] (partner 1 µM) showed a relative viability (COR-L 105; first compound 0.08 µM) of 0.702, a relative viability (COR-L 105; first compound 0.253 µM) of 0.767 and a relative viability (COR-L 105; first compound 0.8 µM) of 0.821. For the same compound, the relative viability (COR-L 105; first compound 2.53 µM) was 0.833, the relative viability (COR-L 105; first compound 8 µM) was 0.751 and the relative viability (SK-LU-1; first compound 0.08 µM) was 0.785. It also gave a relative viability (SK-LU-1; first compound 0.253 µM) of 0.72, a relative viability (SK-LU-1; first compound 0.8 µM) of 0.501 and a relative viability (SK-LU-1; first compound 2.53 µM) of 0.724. It also gave a relative viability (SK-LU-1; first compound 8 µM) of 0.617, a relative viability (HCC-366; first compound 0.08 µM) of 0.457 and a relative viability (HCC-366; first compound 0.253 µM) of 0.334. For the same compound, the relative viability (HCC-366; first compound 0.8 µM) was 0.142, the relative viability (HCC-366; first compound 2.53 µM) was 0.29 and the relative viability (HCC-366; first compound 8 µM) was 0.309. It also gave a relative viability (NCI-H1944; first compound 0.08 µM) of 0.563, a relative viability (NCI-H1944; first compound 2.53 µM) of 0.636 and a relative viability (NCI-H1944; first compound 8 µM) of 0.47. For the same compound, the relative viability (NCI-H1975; first compound 0.08 µM) was 0.746, the relative viability (NCI-H1975; first compound 0.253 µM) was 0.676 and the relative viability (NCI-H1975; first compound 0.8 µM) was 0.672. It also gave a relative viability (NCI-H1975; first compound 2.53 µM) of 0.696, a relative viability (NCI-H1975; first compound 8 µM) of 0.563 and a relative viability (HCC-78; first compound 0.08 µM) of 0.371. For the same compound, the relative viability (HCC-78; first compound 0.8 µM) was 0.369, the relative viability (HCC-78; first compound 2.53 µM) was 0.453 and the relative viability (HCC-78; first compound 8 µM) was 0.447. For the same compound, the relative viability (HCC-15; first compound 0.08 µM) was 0.828, the relative viability (HCC-15; first compound 0.253 µM) was 0.746 and the relative viability (HCC-15; first compound 0.8 µM) was 0.83. It also gave a relative viability (HCC-15; first compound 2.53 µM) of 0.788, a relative viability (HCC-15; first compound 8 µM) of 0.703 and a relative viability (NCI-H358; first compound 0.08 µM) of 0.697. For the same compound, the relative viability (NCI-H358; first compound 0.253 µM) was 0.685, the relative viability (NCI-H358; first compound 0.8 µM) was 0.639 and the relative viability (NCI-H358; first compound 2.53 µM) was 0.906. The relative viability (NCI-H358; first compound 8 µM) was 0.679, the relative viability (HARA; first compound 0.08 µM) was 0.433 and the relative viability (HARA; first compound 0.253 µM) was 0.477. It also gave a relative viability (HARA; first compound 0.8 µM) of 0.519, a relative viability (HARA; first compound 2.53 µM) of 0.484 and a relative viability (HARA; first compound 8 µM) of 0.399. For the same compound, the relative viability (HCC-44; first compound 0.08 µM) was 1.12, the relative viability (HCC-44; first compound 0.253 µM) was 1.12 and the relative viability (HCC-44; first compound 0.8 µM) was 0.923. The relative viability (HCC-44; first compound 2.53 µM) was 1.12, the relative viability (HCC-44; first compound 8 µM) was 0.975 and the relative viability (COR-L23; first compound 0.08 µM) was 0.459. It also gave a relative viability (COR-L23; first compound 0.253 µM) of 0.414, a relative viability (COR-L23; first compound 0.8 µM) of 0.343 and a relative viability (COR-L23; first compound 2.53 µM) of 0.432. The relative viability (COR-L23; first compound 8 µM) was 0.495, the relative viability (LCLC-103H; first compound 0.08 µM) was 0.814 and the relative viability (LCLC-103H; first compound 0.253 µM) was 0.802. For the same compound, the relative viability (LCLC-103H; first compound 0.8 µM) was 0.598, the relative viability (LCLC-103H; first compound 2.53 µM) was 0.759 and the relative viability (LCLC-103H; first compound 8 µM) was 0.717. The relative viability (NCI-H2405; first compound 0.08 µM) was 1.01, the relative viability (NCI-H2405; first compound 0.253 µM) was 0.964 and the relative viability (NCI-H2405; first compound 0.8 µM) was 0.955. It also gave a relative viability (NCI-H2405; first compound 2.53 µM) of 1.01, a relative viability (NCI-H2405; first compound 8 µM) of 0.791 and a relative viability (NCI-H2085; first compound 0.08 µM) of 0.77. The relative viability (NCI-H2085; first compound 0.253 µM) was 0.861, the relative viability (NCI-H2085; first compound 0.8 µM) was 0.723 and the relative viability (NCI-H2085; first compound 2.53 µM) was 0.802. It also gave a relative viability (NCI-H2085; first compound 8 µM) of 0.741, a relative viability (UMC-11; first compound 0.08 µM) of 0.426 and a relative viability (UMC-11; first compound 0.253 µM) of 0.388. For the same compound, the relative viability (UMC-11; first compound 0.8 µM) was 0.348, the relative viability (UMC-11; first compound 2.53 µM) was 0.382 and the relative viability (UMC-11; first compound 8 µM) was 0.318. For the same compound, the relative viability (NCI-H661; first compound 0.08 µM) was 0.667, the relative viability (NCI-H661; first compound 0.253 µM) was 0.741 and the relative viability (NCI-H661; first compound 0.8 µM) was 0.723. The relative viability (NCI-H661; first compound 2.53 µM) was 0.699, the relative viability (NCI-H661; first compound 8 µM) was 0.64 and the relative viability (HCC-827; first compound 0.253 µM) was 0.791. The relative viability (HCC-827; first compound 0.8 µM) was 0.738, the relative viability (HCC-827; first compound 2.53 µM) was 0.785 and the relative viability (HCC-827; first compound 8 µM) was 0.843. It also gave a relative viability (NCI-H727; first compound 0.08 µM) of 1.2, a relative viability (NCI-H727; first compound 0.253 µM) of 1.13 and a relative viability (NCI-H727; first compound 0.8 µM) of 1.11. It also gave a relative viability (NCI-H727; first compound 2.53 µM) of 1.15, a relative viability (NCI-H727; first compound 8 µM) of 1.17 and a relative viability (NCI-H1437; first compound 0.08 µM) of 0.786. For the same compound, the relative viability (NCI-H1437; first compound 0.253 µM) was 0.763, the relative viability (NCI-H1437; first compound 0.8 µM) was 0.767 and the relative viability (NCI-H1437; first compound 2.53 µM) was 0.67. It also gave a relative viability (NCI-H1437; first compound 8 µM) of 0.405, a relative viability (NCI-H1395; first compound 0.08 µM) of 0.696 and a relative viability (NCI-H1395; first compound 0.253 µM) of 0.607. The relative viability (NCI-H1395; first compound 0.8 µM) was 0.629, the relative viability (NCI-H1395; first compound 2.53 µM) was 0.711 and the relative viability (NCI-H1395; first compound 8 µM) was 0.628. For the same compound, the relative viability (NCI-H2023; first compound 0.08 µM) was 0.583, the relative viability (NCI-H2023; first compound 0.253 µM) was 0.747 and the relative viability (NCI-H2023; first compound 0.8 µM) was 0.353. It also gave a relative viability (NCI-H2023; first compound 2.53 µM) of 0.547, a relative viability (NCI-H2023; first compound 8 µM) of 0.484 and a relative viability (EPLC-272H; first compound 0.08 µM) of 0.402. The relative viability (EPLC-272H; first compound 0.253 µM) was 0.453, the relative viability (EPLC-272H; first compound 0.8 µM) was 0.417 and the relative viability (EPLC-272H; first compound 2.53 µM) was 0.418. The relative viability (EPLC-272H; first compound 8 µM) was 0.307.

— the supplement of paper PMC10307832
